The supplement of paper PMC10627819

Assays:
B. subtilis 168 [1] = assay: fitness (endpoint OD595 vs no drug) (fraction); higher = more growth
How it was run: (§1)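 Fitness compares growth at the stationary-phase transition with the robust mean of no-drug control wells, as a ratio of optical densities. The ratio is capped at 1. Wells of 384-well plates held 30 µl, or 55 µl for S. pneumoniae, inoculated at OD595 0.01. Readings at OD595 every 30 min for 14 h at 37 °C were corrected against the first reading.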

S. aureus DSM 20231 [2] = assay: as above
How it was run: as §1

S. aureus Newman [3] = assay: as above
How it was run: as §1

S. pneumoniae D39V [4] = assay: as above
How it was run: as §1

B. subtilis 168 [5] = assay: Bliss interaction score (quartile over a dose matrix) (fitness difference); higher = more antagonism (negative = synergy)
How it was run: (§2)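 The Bliss score takes observed fitness and subtracts the expected fitness, calculated as a product of single-drug fitness values. Those single-drug values were inferred from the combination data. Fitness is OD595 at entry into stationary phase divided by the plate's robust no-drug mean, capped at 1, and the score is summarised by quartiles across technical, biological and donor/recipient replicates.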

S. aureus DSM 20231 [6] = assay: as above
How it was run: as §2

S. aureus Newman [7] = assay: as above
How it was run: as §2

S. pneumoniae D39V [8] = assay: as above
How it was run: as §2
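Throughout, for Bliss interaction score (quartile over a dose matrix): first quartile when negative (synergy) and third quartile when positive (antagonism).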
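Throughout, for fitness (endpoint OD595 vs no drug): OD595 on entry to stationary phase over no-drug wells; at most 1.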

CCC[C@@H]1C[C@@H](C(=O)N[C@@H]([C@H]2O[C@H](SC)[C@H](O)[C@@H](O)[C@H]2O)[C@H](C)Cl)N(C)C1 [Clindamycin] + C[n+]1ccc(-c2cc[n+](C)cc2)cc1 [Paraquat]
fitness, one replicate
Settings | first compound 0.0039 µg/mL | first compound 0.0078 µg/mL | first compound 0.015 µg/mL | first compound 0.0156 µg/mL | first compound 0.03 µg/mL | first compound 0.06 µg/mL
B. subtilis 168 [1], partner 1.25 µg/mL | ≥ 1 | 0.914 | – | 0.847 | – | –
B. subtilis 168 [1], partner 2.5 µg/mL | 0.958 | 0.846 | – | 0.857 | – | –
B. subtilis 168 [1], partner 5 µg/mL | 0.972 | 0.873 | – | 0.83 | – | –
S. pneumoniae D39V [4], partner 1.5 µg/mL | – | – | 0.934 | – | 0.85 | 0.692
S. pneumoniae D39V [4], partner 3 µg/mL | – | – | 0.949 | – | 0.92 | 0.763
S. pneumoniae D39V [4], partner 6 µg/mL | – | – | ≥ 1 | – | 0.914 | 0.805

fitness
Settings | partner 1.25 µg/mL | partner 1.5 µg/mL | partner 2.5 µg/mL | partner 3 µg/mL | partner 5 µg/mL | partner 6 µg/mL
B. subtilis 168 [1], first compound 0.0625 µg/mL | 0.607 | – | 0.513 | – | 0.512 | –
B. subtilis 168 [1], first compound 0.125 µg/mL | 0.392 | – | 0.366 | – | 0.359 | –
B. subtilis 168 [1], first compound 0.25 µg/mL | 0.363 | – | 0.352 | – | 0.281 | –
S. aureus DSM 20231 [2], first compound 0.0625 µg/mL | 0.181 | – | 0.192 | – | 0.14 | –
S. aureus DSM 20231 [2], first compound 0.125 µg/mL | 0.0613 | – | 0.113 | – | 0.0771 | –
S. aureus Newman [3], first compound 0.0312 µg/mL | 0.607 | – | 0.57 | – | 0.516 | –
S. aureus Newman [3], first compound 0.0625 µg/mL | 0.271 | – | 0.241 | – | 0.207 | –
S. aureus Newman [3], first compound 0.125 µg/mL | 0.0526 | – | 0.0427 | – | 0.0913 | –
S. pneumoniae D39V [4], first compound 0.0125 µg/mL | – | 0.744 | – | 0.749 | – | 0.733
S. pneumoniae D39V [4], first compound 0.025 µg/mL | – | 0.489 | – | 0.482 | – | 0.458
S. pneumoniae D39V [4], first compound 0.05 µg/mL | – | 0.24 | – | 0.228 | – | 0.195

Settings | Bliss interaction score
B. subtilis 168 [5] | 0.0483
S. aureus DSM 20231 [6] | -0.0477
S. aureus Newman [7] | -0.112
S. pneumoniae D39V [8] | 0.0554

COc1c(N2C[C@@H]3CCCN[C@@H]3C2)c(F)cc2c(=O)c(C(=O)O)cn(C3CC3)c12 [Moxifloxacin] + CN[C@@H]1[C@H](O)[C@H](NC)[C@H]2O[C@@]3(O)C(=O)C[C@@H](C)O[C@H]3O[C@@H]2[C@H]1O [Spectinomycin]
fitness
Settings | partner 2 µg/mL | partner 4 µg/mL | partner 8 µg/mL | partner 16 µg/mL
B. subtilis 168 [1], first compound 0.0312 µg/mL | 0.0488 | 0.0437 | 0.0518 | –
B. subtilis 168 [1], first compound 0.0625 µg/mL | 0.0414 | 0.0348 | 0.0153 | –
B. subtilis 168 [1], first compound 0.125 µg/mL | 0.026 | 0.0367 | 0.0296 | –
B. subtilis 168 [1], first compound 2 µg/mL | 0.0229 | 0.0184 | 0.0086 | –
B. subtilis 168 [1], first compound 4 µg/mL | 0.0296 | 0.0084 | 0.0039 | –
B. subtilis 168 [1], first compound 8 µg/mL | 0.0255 | 0.02 | 0.0092 | –
S. aureus DSM 20231 [2], first compound 0.0075 µg/mL | – | 0.822 | 0.848 | 0.731
S. aureus DSM 20231 [2], first compound 0.015 µg/mL | – | 0.725 | 0.734 | 0.743
S. aureus DSM 20231 [2], first compound 0.03 µg/mL | – | 0.654 | 0.74 | 0.694
S. aureus Newman [3], first compound 0.0075 µg/mL | – | 0.742 | 0.748 | 0.7
S. aureus Newman [3], first compound 0.015 µg/mL | – | – | – | 0.497
S. aureus Newman [3], first compound 0.03 µg/mL | – | – | 0.0882 | 0.0514
S. pneumoniae D39V [4], first compound 0.005 µg/mL | – | 0.923 | 0.936 | 0.82
S. pneumoniae D39V [4], first compound 0.01 µg/mL | – | 0.944 | 0.93 | 0.836
S. pneumoniae D39V [4], first compound 0.02 µg/mL | – | 0.896 | 0.843 | 0.796

one replicate
Settings | fitness
S. aureus DSM 20231 [2], first compound 0.0075 µg/mL, partner 32 µg/mL | 0.666
S. aureus DSM 20231 [2], first compound 0.0075 µg/mL, partner 64 µg/mL | 0.0692
S. aureus DSM 20231 [2], first compound 0.015 µg/mL, partner 32 µg/mL | 0.656
S. aureus DSM 20231 [2], first compound 0.015 µg/mL, partner 64 µg/mL | 0.0534
S. aureus DSM 20231 [2], first compound 0.03 µg/mL, partner 32 µg/mL | 0.625
S. aureus DSM 20231 [2], first compound 0.03 µg/mL, partner 64 µg/mL | 0.0231
S. aureus DSM 20231 [2], first compound 0.06 µg/mL, partner 4 µg/mL | 0.664
S. aureus DSM 20231 [2], first compound 0.06 µg/mL, partner 8 µg/mL | 0.675
S. aureus DSM 20231 [2], first compound 0.06 µg/mL, partner 16 µg/mL | 0.673
S. aureus DSM 20231 [2], first compound 0.12 µg/mL, partner 4 µg/mL | 0.505
S. aureus DSM 20231 [2], first compound 0.12 µg/mL, partner 8 µg/mL | 0.457
S. aureus DSM 20231 [2], first compound 0.12 µg/mL, partner 16 µg/mL | 0.523
S. aureus Newman [3], first compound 0.0075 µg/mL, partner 32 µg/mL | 0.464
S. aureus Newman [3], first compound 0.0075 µg/mL, partner 64 µg/mL | 0.0581
S. aureus Newman [3], first compound 0.015 µg/mL, partner 32 µg/mL | 0.294
S. aureus Newman [3], first compound 0.015 µg/mL, partner 64 µg/mL | 0.047
S. aureus Newman [3], first compound 0.03 µg/mL, partner 32 µg/mL | 0.0318
S. aureus Newman [3], first compound 0.03 µg/mL, partner 64 µg/mL | 0.0289
S. pneumoniae D39V [4], first compound 0.0037 µg/mL, partner 4 µg/mL | 0.897
S. pneumoniae D39V [4], first compound 0.0037 µg/mL, partner 8 µg/mL | 0.83
S. pneumoniae D39V [4], first compound 0.0075 µg/mL, partner 4 µg/mL | 0.912
S. pneumoniae D39V [4], first compound 0.0075 µg/mL, partner 8 µg/mL | 0.816
S. pneumoniae D39V [4], first compound 0.015 µg/mL, partner 4 µg/mL | 0.891
S. pneumoniae D39V [4], first compound 0.015 µg/mL, partner 8 µg/mL | 0.813

Settings | Bliss interaction score
B. subtilis 168 [5] | -0.0287
S. aureus DSM 20231 [6] | -0.0426
S. aureus Newman [7] | -0.0569
S. pneumoniae D39V [8] | 0.0328

COc1c(N2C[C@@H]3CCCN[C@@H]3C2)c(F)cc2c(=O)c(C(=O)O)cn(C3CC3)c12 [Moxifloxacin] + CCN(CC)CCOC(=O)c1ccc(N)cc1 [Procaine]
fitness
Settings | partner 85.5 µg/mL | partner 171 µg/mL | partner 342 µg/mL
B. subtilis 168 [1], first compound 0.0312 µg/mL | 0.0464 | 0.0462 | 0.0422
B. subtilis 168 [1], first compound 0.0625 µg/mL | 0.051 | 0.0447 | 0.0546
B. subtilis 168 [1], first compound 0.125 µg/mL | 0.0477 | 0.041 | 0.0508
B. subtilis 168 [1], first compound 2 µg/mL | 0.0328 | 0.02 | 0.021
B. subtilis 168 [1], first compound 4 µg/mL | 0.0283 | 0.0228 | 0.0275
B. subtilis 168 [1], first compound 8 µg/mL | 0.017 | 0.0132 | 0.0182
S. aureus DSM 20231 [2], first compound 0.0075 µg/mL | 0.781 | 0.876 | 0.898
S. aureus DSM 20231 [2], first compound 0.015 µg/mL | 0.712 | 0.744 | 0.773
S. aureus DSM 20231 [2], first compound 0.03 µg/mL | 0.619 | 0.677 | 0.669
S. aureus Newman [3], first compound 0.0075 µg/mL | 0.771 | 0.757 | 0.763
S. pneumoniae D39V [4], first compound 0.005 µg/mL | ≥ 1 | 0.996 | ≥ 1
S. pneumoniae D39V [4], first compound 0.01 µg/mL | ≥ 1 | 0.986 | 0.974
S. pneumoniae D39V [4], first compound 0.02 µg/mL | 0.966 | 0.929 | 0.874

fitness, one replicate
Settings | partner 85.5 µg/mL | partner 171 µg/mL | partner 342 µg/mL
S. aureus DSM 20231 [2], first compound 0.06 µg/mL | 0.684 | 0.666 | 0.688
S. aureus DSM 20231 [2], first compound 0.12 µg/mL | 0.481 | 0.468 | 0.492
S. pneumoniae D39V [4], first compound 0.0037 µg/mL | 0.927 | 0.926 | 0.826
S. pneumoniae D39V [4], first compound 0.0075 µg/mL | ≥ 1 | 0.93 | 0.845
S. pneumoniae D39V [4], first compound 0.015 µg/mL | 0.881 | 0.923 | 0.849

Settings | Bliss interaction score
B. subtilis 168 [5] | -0.015
S. aureus DSM 20231 [6] | -0.0665
S. aureus Newman [7] | 0.0617
S. pneumoniae D39V [8] | 0.0674

O=C(O[C@@H]1Cc2c(O)cc(O)cc2O[C@@H]1c1cc(O)c(O)c(O)c1)c1cc(O)c(O)c(O)c1 [EGCG] + C[C@@H]1O[C@@H]1P(=O)(O)O [Fosfomycin]
fitness
Settings | first compound 6.25 µg/mL | first compound 12.5 µg/mL | first compound 25 µg/mL | first compound 50 µg/mL
B. subtilis 168 [1], partner 1.562 µg/mL | 0.682 | – | – | –
B. subtilis 168 [1], partner 3.124 µg/mL | 0.562 | – | 0.396 | –
B. subtilis 168 [1], partner 6.248 µg/mL | 0.448 | 0.439 | 0.25 | –
S. aureus DSM 20231 [2], partner 0.781 µg/mL | – | 0.583 | 0.541 | 0.402
S. aureus DSM 20231 [2], partner 1.562 µg/mL | – | 0.459 | 0.465 | –
S. aureus DSM 20231 [2], partner 3.124 µg/mL | – | 0.416 | 0.399 | 0.23
S. aureus Newman [3], partner 0.781 µg/mL | – | 0.494 | 0.573 | 0.548
S. aureus Newman [3], partner 1.562 µg/mL | – | 0.542 | 0.502 | 0.48
S. aureus Newman [3], partner 3.124 µg/mL | – | 0.251 | 0.219 | 0.185
S. pneumoniae D39V [4], partner 1.25 µg/mL | – | 0.965 | 0.913 | 0.969
S. pneumoniae D39V [4], partner 2.5 µg/mL | – | 0.948 | 0.936 | 0.856
S. pneumoniae D39V [4], partner 5 µg/mL | – | 0.774 | 0.796 | 0.854

Settings | Bliss interaction score
B. subtilis 168 [5] | 0.144
S. aureus DSM 20231 [6] | -0.113
S. aureus Newman [7] | 0.101
S. pneumoniae D39V [8] | 0.0738
